Key:
[1] = in the presence of hypokalaemia; cited from earlier work
[2] = system: alpha-1 adrenergic; settings: cited from earlier work
[3] = system: platelets; test: Platelet count (full blood count) in cross-over study; assay type: in vivo, human patients
Procedure: (§1) Study design: Randomised controlled double blind cross-over study: 2 weeks 5HT2A receptor antagonist (Thromboserin) (10 mg twice daily) or placebo, wash out period of 2 weeks and cross over to other arm for further two weeks. Side effects, and compliance documented in both groups. Blood sampling/Assays: Blood samples obtained at baseline, 2 weeks (the end of phase 1), 4 weeks (the end of phase 2), at 6 weeks (the end of phase 3) and 2 weeks after the completion of the study. The following assays were obtained. • Full blood count, urea, electrolytes, creatinine, liver function tests and glucose • Blood levels of Thromboserin • Bleeding time • Surface expression of the platelet activation markers P-selectin and fibrinogen. These were measured using whole blood flow cytometry. Measurement after incubation with agonists such as ADP was also performed in order to assess the platelet responsiveness to stimuli. • Ultegra Rapid Platelet Function Assay (RPFA). Methods: Venepuncture: Venous blood was collected into vacutainers by clean venepuncture with 19G butterfly and adaptor, using tourniquet to locate the vein only. The first 5 mL of blood was used for full blood count, and subsequent samples collected in order for the platelet tests and others. Clinical symptoms and signs were also recorded. The other observations were: routine full blood count by Clinical Haematology Laboratory, ARI, and U&Es, creatinine, Liver Function tests and blood glucose by Clinical Biochemistry Laboratory, ARI.

[4] = Skin bleeding time in randomised double blind cross-over study; assay type: in vivo, human patients; settings: first 13 patients, drug 10 mg twice daily vs placebo cross-over courses
Source text: Objective: To evaluate whether inhibition platelets can be accompanied by no increase in bleeding time, by means of serotonin 5HT2A receptor antagonism. Study population: Patients with a history of intermittent claudication (IC) or coronary heart disease (CHD) recruited. There were 48 patients studied, all of whom were Caucasian, aged 69±6.6 years and of which 38 were male and 10 female. Patients with IC have clinical findings of peripheral vascular disease and an ABPI <0.9. Patients with CHD have chronic stable angina and angiographic evidence of coronary artery disease (stenosis of >70% in at least one major coronary artery). Study design: Randomised controlled double blind cross-over study: 2 weeks 5HT2A receptor antagonist (Thromboserin) (10 mg twice daily) or placebo, wash out period of 2 weeks and cross over to other arm for further two weeks. Side effects, and compliance documented in both groups. Skin bleeding time was performed, contra-laterally from venepuncture. A suitable area of forearm was shaved if necessary and cleaned with alcohol swab. A sphygmomanometer cuff was inflated on the upper arm to 40 mmHg. One incision was made with Surgicutt bleeding device ([…], Hertfordshire), and a stopwatch was started. […] The bleeding time was recorded to the nearest 30 seconds.

[5] = Clinical biochemistry (liver function tests, glucose, urea, creatinine, electrolytes) in cross-over study; assay type: in vivo, human patients; settings: Thromboserin vs placebo
Procedure: as §1, with “Venepuncture:” for “Venepuncture: Venous blood was collected into vacutainers by clean venepuncture with 19G butterfly and adaptor, using tourniquet to locate the vein only. The first 5 mL of blood was used for full blood count, and subsequent samples collected in order for the platelet tests and others.”

O=C(c1ccc(F)cc1)C1CCN(CCn2c(=O)[nH]c3ccccc3c2=O)CC1 [Ketanserin]
Pro-arrhythmic properties (in words) [1]: pro-arrhythmic properties | Alpha-1 adrenergic activity (in words) [2]: alpha-1 adrenergic antagonistic properties

CN(C)C(C)(C)CSc1nc2ccccc2cc1-c1ccccc1.Cl [Thromboserin]
Probability of no Difference: Platelet count ([3]; Thromboserin 10 mg twice daily 2 weeks vs placebo, Wilcoxon): 0.0416 | Probability of no Difference: Platelet count over 6 weeks ([3]; Thromboserin vs placebo, Repeated measures ANOVA): 0.0233 | Probability of no Difference: Platelets, excluding 4 patients With abnormal count ([3]; Thromboserin vs placebo, Wilcoxon): 0.0214 | Change of bleeding time (in words) [4]: no significant rise in bleeding time | Probability of no Difference: Alanine amino transferase ([5]; Wilcoxon): 0.0021 | Probability of no Difference: Gamma GT ([5]; Wilcoxon): 0.0216 | Probability of no Difference: Gamma GT, In patients with abnormal values ([5]; Wilcoxon): 0.0266 | Probability of no Difference: Alkaline phosphatase ([5]; paired t test): 0.0034

Reference: patent publication US9198903B2, “Method of treating or preventing thrombosis in a patient with 5-HT2A receptor antagonist thromboserin” (Thromboserin Limited, priority 2007, dated 2015)
